These results are taken from patent publication US11274095B2, “Modulators of methyl modifying enzymes, compositions and uses thereof” (Constellation Pharmaceuticals, Inc., priority 2018, dated 2022).

The IC50 is the concentration at which inhibition is half-maximal. Low values mean greater potency, high ones weaker potency. A word on the EC50: it is the concentration needed to bring the measured effect to its halfway point. As usually defined, the Papp is the rate of passage across a membrane or cell layer, normalised by area and donor concentration. Lower therefore signals poor permeation. The efflux ratio is the permeability from basolateral to apical divided by that in the opposite direction, in the common usage. A word on the GI50: it is the concentration that inhibits growth by half. A higher GI50 goes with lower sensitivity of the cells.

One data set deals with PRC2 containing wt EZH2 (Homo sapiens (Human), UniProt Q15910). Nature of the data set: EZH2 biochemical assay (IC50), 3H-SAM incorporation into biotinylated H3 peptide. The following applies: 30 pM PRC2 with wt EZH2, 3-5 h pre-incubation. On the procedure:
EZH2 biochemical assay (IC50): Compound potencies were assessed through incorporation of ^3H-SAM into a biotinylated H3 peptide. Specifically, 30 pM PRC2 containing wt EZH2 (pentameric complex prepared in-house) was pre-incubated with 450 nM SAM, 450 nM ^3H-SAM, 2 μM H3K27me3 activating peptide (H2N-RKQLATKAAR(Kme3)SAPATGGVKKP-amide) and compounds (as 10 point duplicate dose response titrations in DMSO, final assay 0.8% DMSO (v/v)) for 3-5 h in 50 mM Tris (pH 8.5), 1 mM DTT, 0.07 mM Brij-35, 0.1% BSA, and 0.8% DMSO in a total volume of 12.5 μl. Reaction was initiated with biotinylated H3 substrate peptide (H2N-RKQLATKAAR(Kmel)SAPATGGVKKP-NTPEGBiot) as a 2 μM stock in 12.5 μl of buffer and allowed to react at room temperature for 18-22 h. Quenching was accomplished by addition of 20 μl of STOP solution (50 mM Tris (pH 8.5), 200 mM EDTA, 2 mM SAH). 35 μl of the quenched solution was transferred to streptavidin coated FlashPlates (PerkinElmer), incubated 1-2 h, washed, and read in a TopCount Reader (PerkinElmer). IC50s were calculated in Genedata Screener using non-linear least square four parameter fits, where the four parameters were IC50, Hill slope, pre-transitional baseline (0% INH), and post-transitional baseline (100% INH).

In another data set the test system is H3K27me3 in Hela cells. Nature of the data set: H3K27me3 Alpha Hela Assay (AlphaLISA). It is filed as cell-based. The method, then:
H3K27me3 Alpha Hela Assay (AlphaLISA). Ten different doses of each test compound (in a series of 3-fold dilutions) were plated in duplicate 384-well tissue culture treated plates (Catalog #6007680; Perkin Elmer, Waltham, Mass.). Hela cells grown in culture were trypsinized and counted using a Countess® cell counter (Catalog #C10281; Life Technologies, Grand Island, N.Y.). Cell were diluted to 67,000 cells per mL in10% DMEM (Catalog #10569-010 Life Technologies, Grand Island, N.Y.) and 15 μL (1,000 cells) were plated into each well using the Biotek MicroFlo™ Select Dispenser (BioTek Instruments, Inc. Vermont, USA),) of the 384-well plate. Plates were incubated at 37° C./5% CO2 for 72 hrs. One of the duplicate plates was processed for HeLa assay and the other for viability. 5 μL of Cell-Histone Lysis buffer (1×) (Catalog #AL009F1 Perkin Elmer; Waltham, Mass.) per well was added to the plate processed for AlphaLISA and the plate was incubated at RT for 30 minutes on a plate shaker with low speed (Model# 4625-Q Thermo Scientific; Waltham, Mass.). Then, 10 μL per well Histone Extraction buffer (catalog #AL009F2; Perkin Elmer; Waltham, Mass.) was added and the plate further incubated at RT for 20 min on plate shaker with low speed. Next, 10 μL of 5× mix of anti-K27me3 acceptor beads plus Biotinylated anti-Histone H3 (C-ter) Antibody (diluted to 3 nM final) (Catalog #AL118 Perkin Elmer; Waltham, Mass.) was added in each well. Dilution of the acceptor beads and anti-Histone H3 was done in 1× Histone Detection buffer (Catalog #AL009F3 Perkin Elmer; Waltham, Mass.) which was produced by diluting the 10× stock provided. The plate was sealed with an aluminum plate sealer and incubated at 23° C. for 60 min. Next, 10 μL 5× solution of Streptavidin Donor beads were added (Catalog #6760002 Perkin Elmer; Waltham, Mass.) (20 μg/mL final in 1× Histone Detection Buffer), =plate was sealed with Aluminum plate sealer and incubated at 23° C. for 30 min. The plates were then read using an EnVision-Alpha Reader (model #2104 Perkin Elmer; Waltham, Mass.). […]

A short description of data set [1]: Cellular permeability in MDCK assay. It is filed as in vitro ADME. Particulars: dog, pH 7.4, MDCK II, with P-gp inhibitor GF120918 10 μM; for efflux ratio at 2.5 h, 2 μM: Papp(BA)/Papp(AB). The method, then: Cell culture: MDCK II cells (obtained from Piet Borst at the Netherlands Cancer Institute) were seeded onto […] (PET) in 96-well BD insert systems at 2.5×10^5 cells/mL until to 4-7 days for confluent cell monolayer formation.
Experimental procedure: Test and reference compounds (nadolol, metoprolol and digoxin) were diluted with transport buffer (HBSS with 10mM Hepes, pH7.4) from stock solution to a concentration of 2 μM (<1% DMSO) and applied to the apical (A) or basolateral (B) side of the cell monolayer. Permeation of the test compounds from A to B direction or B to A direction was determined in duplicate with P-gp inhibitor (GF120918, 10 μM). Digoxin was tested at 10 μM from A to B direction or B to A direction with/without P-gp inhibitor (GF120918, 10 μM) as well, while nadolol and metoprolol were tested at 2 μM in A to B direction without P-gp inhibitor (GF120918, 10 μM) in duplicate. The plate was incubated for 2.5 hours in CO2 incubator at 37±1° C., with 5% CO2 at saturated humidity without shaking. In addition, the efflux ratio of each compound was also determined. Test and reference compounds were quantified by LC/MS/MS analysis based on the peak area ratio of analyte/IS. After transport assay, Lucifer yellow rejection assay are applied to determine the cell monolayer integrity. Buffers are removed from both apical and basolateral chambers, followed by the addition of 75 μL of 100 μM lucifer yellow in transport buffer and 250 μL transport buffer in apical and basolateral chambers, respectively. The plate is incubated for 30 minutes at 37° C. with 5% CO2 and 95% relative humidity without shaking. After 30 minutes incubation, 20 μL of lucifer yellow samples are taken from the apical sides, followed by the addition of 60 μL of Transport Buffer. And then 80 μL of lucifer yellow samples are taken from the basolateral sides. The relative fluorescence unit (RFU) of lucifer yellow is measured at 425/528 nm (excitation/emission) with a Molecular Device M2e plate reader.
Data analysis: The apparent permeability coefficient Papp (cm/s) was calculated using the equation: Papp=(dCr/dt)×Vr/(A×C0) Where dCr/dt is the cumulative concentration of compound in the receiver chamber as a function of time (μM/s); Vr is the solution volume in the receiver chamber (0.075 mL on the apical side, 0.25 mL on the basolateral side); A is the surface area for the transport, i.e. 0.0804 cm2 for the area of the monolayer; C0 is the initial concentration in the donor chamber (μM).
The efflux ratio was calculated using the equation: Efflux Ratio=Papp(BA)/Papp(AB) Percent recovery was calculated using the equation: % Recovery=100×[(Vr×Cr)+(Vd×Cd)]/(Vd×C0) Where Vd is the volume in the donor chambers (0.075 mL on the apical side, 0.25 mL on the basolateral side); Cd and Cr are the final concentrations of transport compound in donor and receiver chambers, respectively.
Percent of lucifer yellow in basolateral well is calculated using the equation:
[formula] where RFUApical and RFUBasolateral are the relative fluorescence unit values of lucifer yellow in the apical and basolateral wells, respectively; VApical and VBasolateral are the volume of apical and basolateral wells (0.075 mL and 0.25 mL), respectively. Percent lucifer yellow should be less than 2.

The test system of a further data set is Karpas-422 cell lines. The experiment in a line: Karpas-422 viability assay (Cell Titer-Glo, Day 8). It is filed as cell-based. Particulars: Cell Titer-Glo on Day 8. On the procedure:
Karpas-422 cell lines were obtained from DSMZ (Braunschweig, Germany) and were grown in RPMI-1640 media. All media contained 10% fetal bovine serum (FBS) and 1% penicillin/streptomycin (Invitrogen). 20K cells per well were plated onto 96 well compound coated plates. Cells were split and seeded at original plating density (based on the DMSO well counts) every 4 days into plates containing fresh EZH2 inhibitors. Relative cell numbers were assessed by Cell Titer-Glo luminescent cell viability assay (Promega) on Day 8. GraphPad Prism 5 was used for curve fitting and GI50 values were reported.
A general note: In ATP-based viability assays light output follows the ATP content of the culture.

[2] abbreviates: Homo sapiens, KARPAS-422, 192 h.

Molecules are shown by their SMILES.

PRC2 containing wt EZH2, sequence (Q15910 whole entry): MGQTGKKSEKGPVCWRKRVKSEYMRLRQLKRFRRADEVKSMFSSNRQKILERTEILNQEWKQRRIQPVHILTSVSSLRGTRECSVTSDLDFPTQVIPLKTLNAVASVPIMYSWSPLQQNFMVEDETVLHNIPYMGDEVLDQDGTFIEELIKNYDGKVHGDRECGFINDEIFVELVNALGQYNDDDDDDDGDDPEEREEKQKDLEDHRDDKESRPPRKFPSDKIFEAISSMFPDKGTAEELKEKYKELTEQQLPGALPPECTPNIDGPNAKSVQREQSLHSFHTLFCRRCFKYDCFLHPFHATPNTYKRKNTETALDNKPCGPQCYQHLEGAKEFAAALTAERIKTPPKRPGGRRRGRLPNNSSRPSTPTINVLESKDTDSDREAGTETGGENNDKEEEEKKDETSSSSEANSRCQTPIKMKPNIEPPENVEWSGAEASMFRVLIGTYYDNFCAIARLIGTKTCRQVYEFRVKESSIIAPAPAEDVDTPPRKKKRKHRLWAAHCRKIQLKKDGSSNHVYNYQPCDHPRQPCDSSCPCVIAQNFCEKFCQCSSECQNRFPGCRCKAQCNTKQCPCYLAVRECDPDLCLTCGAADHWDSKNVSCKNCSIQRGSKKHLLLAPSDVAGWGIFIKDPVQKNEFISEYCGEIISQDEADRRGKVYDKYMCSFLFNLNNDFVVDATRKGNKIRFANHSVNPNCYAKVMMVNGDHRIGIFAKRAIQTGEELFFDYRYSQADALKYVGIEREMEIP
PRC2 containing wt EZH2, sequence (O75530 whole entry partner): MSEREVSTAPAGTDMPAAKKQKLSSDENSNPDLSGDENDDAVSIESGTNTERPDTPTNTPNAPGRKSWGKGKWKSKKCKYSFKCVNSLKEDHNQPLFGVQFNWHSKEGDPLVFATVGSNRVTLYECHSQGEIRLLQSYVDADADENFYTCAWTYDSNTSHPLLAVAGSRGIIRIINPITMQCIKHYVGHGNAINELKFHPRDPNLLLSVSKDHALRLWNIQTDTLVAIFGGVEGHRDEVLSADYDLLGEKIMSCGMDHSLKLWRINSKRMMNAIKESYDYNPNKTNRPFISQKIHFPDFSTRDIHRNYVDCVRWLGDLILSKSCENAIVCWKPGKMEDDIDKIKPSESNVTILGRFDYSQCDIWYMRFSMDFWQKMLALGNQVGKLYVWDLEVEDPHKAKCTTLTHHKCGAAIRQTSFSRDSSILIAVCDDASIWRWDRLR
PRC2 containing wt EZH2, sequence (Q15022 whole entry partner): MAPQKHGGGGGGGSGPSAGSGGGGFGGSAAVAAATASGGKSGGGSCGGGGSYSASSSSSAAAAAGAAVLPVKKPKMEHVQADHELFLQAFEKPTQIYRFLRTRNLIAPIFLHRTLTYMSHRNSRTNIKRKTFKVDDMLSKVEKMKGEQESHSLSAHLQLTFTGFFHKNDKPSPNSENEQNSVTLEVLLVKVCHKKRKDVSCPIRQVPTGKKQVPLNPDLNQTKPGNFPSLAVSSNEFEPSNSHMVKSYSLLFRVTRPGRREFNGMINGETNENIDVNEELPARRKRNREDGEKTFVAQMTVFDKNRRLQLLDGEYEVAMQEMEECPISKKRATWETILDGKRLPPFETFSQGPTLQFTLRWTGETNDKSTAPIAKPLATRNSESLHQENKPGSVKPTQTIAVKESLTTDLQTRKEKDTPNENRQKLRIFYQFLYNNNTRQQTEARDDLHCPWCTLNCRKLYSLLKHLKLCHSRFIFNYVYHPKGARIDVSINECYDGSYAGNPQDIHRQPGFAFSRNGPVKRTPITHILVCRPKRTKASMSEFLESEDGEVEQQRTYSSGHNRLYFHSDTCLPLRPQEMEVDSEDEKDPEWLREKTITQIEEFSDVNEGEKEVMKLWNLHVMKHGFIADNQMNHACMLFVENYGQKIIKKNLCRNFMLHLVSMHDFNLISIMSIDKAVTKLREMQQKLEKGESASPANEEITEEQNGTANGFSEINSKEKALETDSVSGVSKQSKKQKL
PRC2 containing wt EZH2, sequence (Q09028 whole entry partner): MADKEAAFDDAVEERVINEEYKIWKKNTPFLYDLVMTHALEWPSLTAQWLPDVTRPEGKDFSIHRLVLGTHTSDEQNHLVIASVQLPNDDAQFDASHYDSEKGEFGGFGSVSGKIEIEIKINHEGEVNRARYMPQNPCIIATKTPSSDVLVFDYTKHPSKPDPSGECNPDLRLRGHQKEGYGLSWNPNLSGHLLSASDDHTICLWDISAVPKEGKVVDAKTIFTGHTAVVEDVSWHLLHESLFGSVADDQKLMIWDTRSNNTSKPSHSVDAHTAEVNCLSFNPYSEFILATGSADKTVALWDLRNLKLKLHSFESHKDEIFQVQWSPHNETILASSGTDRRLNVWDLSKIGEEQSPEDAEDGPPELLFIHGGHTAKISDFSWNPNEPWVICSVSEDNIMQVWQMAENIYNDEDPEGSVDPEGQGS
PRC2 containing wt EZH2, sequence (Q6ZN18 whole entry partner): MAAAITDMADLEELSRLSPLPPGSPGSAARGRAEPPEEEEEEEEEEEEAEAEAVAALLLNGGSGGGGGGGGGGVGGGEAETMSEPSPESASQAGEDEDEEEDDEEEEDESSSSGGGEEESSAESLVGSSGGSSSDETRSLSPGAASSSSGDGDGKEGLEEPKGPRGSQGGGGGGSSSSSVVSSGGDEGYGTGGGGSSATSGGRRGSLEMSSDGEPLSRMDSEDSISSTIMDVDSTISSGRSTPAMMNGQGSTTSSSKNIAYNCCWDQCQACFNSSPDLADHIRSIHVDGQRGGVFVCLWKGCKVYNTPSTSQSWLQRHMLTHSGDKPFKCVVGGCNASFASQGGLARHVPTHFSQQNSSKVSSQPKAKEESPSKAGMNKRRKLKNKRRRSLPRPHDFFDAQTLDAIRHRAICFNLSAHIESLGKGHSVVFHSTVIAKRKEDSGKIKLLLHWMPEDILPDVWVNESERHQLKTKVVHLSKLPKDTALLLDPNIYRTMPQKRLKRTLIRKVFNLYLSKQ

Turning to `CSc1cc(C)[nH]c(=O)c1CNC(=O)c1cc(Cl)c2c(c1C)OC(C)(C1CCN(CC(F)(F)F)CC1)O2` (single isomer, unassigned) [Example 14-Enantiomer 1, 7-chloro-2,4-dimethyl-N-((6-methyl-4-(methylthio)-2-oxo-1,2-dihydropyridin-3-yl)methyl)-2-(1-(2,2,2-trifluoroethyl)piperidin-4-yl)benzo[d][1,3]dioxole-5-carboxamide], the IC50 at PRC2 containing wt EZH2 came to 0.037 nM. The molecule further came in with an EC50 with H3K27me3 in Hela cells (72 hrs) of 1.4 nM.
At PRC2 containing wt EZH2, `CSc1cc(C)[nH]c(=O)c1CNC(=O)c1cc(Cl)c2c(c1C)OC(C)(C1CCN(CC(F)(F)F)CC1)O2` (single isomer, unassigned) [Example 14-Enantiomer 2, 7-chloro-2,4-dimethyl-N-((6-methyl-4-(methylthio)-2-oxo-1,2-dihydropyridin-3-yl)methyl)-2-(1-(2,2,2-trifluoroethyl)piperidin-4-yl)benzo[d][1,3]dioxole-5-carboxamide] registered a half-inhibitory concentration (IC50) of 7 nM. Besides, the EC50 with H3K27me3 in Hela cells (72 hrs) stood at 210 nM. In data set [1], the Papp at 2.5 h, 2 μM came to 130 nm/s and the efflux ratio at 2.5 h, 2 μM amounted to 0.56.
`CSc1cc(C)[nH]c(=O)c1CNC(=O)c1cc(Cl)c2c(c1C)O[C@@](C)([C@H]1CC[C@H](N(C)C)CC1)O2` [Example 4] showed a 50% inhibitory concentration (IC50) against PRC2 containing wt EZH2 of 0.038 nM. This molecule also came in with an EC50 in the data set on H3K27me3 in Hela cells (Homo sapiens, HeLa, 72 h) of 0.51 nM. In the data set with Karpas-422 cell lines (setting [2]), this molecule returned a GI50 of 4 nM. Also, in data set [1], the Papp at 2.5 h, 2 μM was determined as 6.2 nm/s and the efflux ratio at 2.5 h, 2 μM is 2.3.
Regarding `CSc1cc(C)[nH]c(=O)c1CNC(=O)c1cc(Cl)c2c(c1C)OC(C)(C1CCC(NC3(CF)COC3)CC1)O2` (single isomer, unassigned) [Example 11 (geometric isomer 1)], on PRC2 containing wt EZH2, the IC50 came to 0.14 nM. Further, the EC50 with H3K27me3 in Hela cells (Homo sapiens, HeLa, 72 h) was found to be 1.3 nM. In addition, in the data set on Karpas-422 cell lines (setting [2]), the GI50 is 8.6 nM. For the same molecule, in data set [1], the Papp at 2.5 h, 2 μM is 53 nm/s and the efflux ratio at 2.5 h, 2 μM was found to be 1.3.
Turning to `Cc1cc(Cl)c(CNC(=O)c2cc(Cl)c3c(c2C)OC(C)(C2CCN(CC(F)(F)F)CC2)O3)c(=O)[nH]1` (single isomer, unassigned) [Example 16-Enantiomer 1, 7-chloro-N-((4-chloro-6-methyl-2-oxo-1,2-dihydropyridin-3-yl)methyl)-2,4-dimethyl-2-(1-(2,2,2-trifluoroethyl)piperidin-4-yl)benzo[d][1,3]dioxole-5-carboxamide], half-maximal inhibition against PRC2 containing wt EZH2 (IC50) required 0.31 nM. This molecule showed an EC50 in the data set on H3K27me3 in Hela cells (72 hrs) of 22 nM.
The molecule `CSc1cc(C)[nH]c(=O)c1CNC(=O)c1cc(Cl)c2c(c1C)OC(C)(C1CCC(NC3(C(F)(F)F)COC3)CC1)O2` (single isomer, unassigned) [Example 6-Enantiomer 2] showed an IC50 at PRC2 containing wt EZH2 of 0.14 nM. Further, the EC50 with H3K27me3 in Hela cells (72 hrs) was found to be 4.2 nM. The same molecule yielded a GI50 in the data set on Karpas-422 cell lines of 53 nM.
For `Cc1cc(Cl)c(CNC(=O)c2cc(Cl)c3c(c2C)OC(C)(C2CCN(CC(F)(F)F)CC2)O3)c(=O)[nH]1` (single isomer, unassigned) [Example 16-Enantiomer 2, 7-chloro-N-((4-chloro-6-methyl-2-oxo-1,2-dihydropyridin-3-yl)methyl)-2,4-dimethyl-2-(1-(2,2,2-trifluoroethyl)piperidin-4-yl)benzo[d][1,3]dioxole-5-carboxamide], the IC50 against PRC2 containing wt EZH2 was more than 10 nM. For the same molecule, the EC50 in the data set on H3K27me3 in Hela cells (72 hrs) was more than 300 nM.
`CSc1cc(C)[nH]c(=O)c1CNC(=O)c1cc(Cl)c2c(c1C)OC(C)(C1CCC(N3CC(F)(F)C3)CC1)O2` (single isomer, unassigned) [Example 7-Enantiomer 1] displayed a 50% inhibitory concentration (IC50) against PRC2 containing wt EZH2 of 8.6 nM.
`CSc1cc(C)[nH]c(=O)c1CNC(=O)c1cc(Cl)c2c(c1C)OC(C)(C1CCC(NC3(CF)COC3)CC1)O2` (single isomer, unassigned) [Example 11 (geometric isomer 2)]: the IC50 against PRC2 containing wt EZH2 turned out to be 0.18 nM. Moreover, the EC50 in the data set on H3K27me3 in Hela cells (72 hrs) stood at 1.7 nM.
As to `CSc1cc(C)[nH]c(=O)c1CNC(=O)c1cc(Cl)c2c(c1C)OC(C)(C1CCC(NC3(C(F)(F)F)COC3)CC1)O2` (single isomer, unassigned) [Example 6-Enantiomer 1, 7-chloro-2,4-dimethyl-N-((6-methyl-4-(methylthio)-2-oxo-1,2-dihydropyridin-3-yl)methyl)-2-(4-((3-(trifluoromethyl)oxetan-3-yl)amino)cyclohexyl)benzo[d][1,3]dioxole-5-carboxamide], 1.8 nM corresponded to half-maximal inhibition on PRC2 containing wt EZH2 (IC50). In the data set on H3K27me3 in Hela cells (72 hrs), this molecule came in with an EC50 of 39 nM. Further, growth in the data set with Karpas-422 cell lines was halved (GI50) at 720 nM.
In turn, `CSc1cc(Cl)[nH]c(=O)c1CNC(=O)c1cc(Cl)c2c(c1C)OC(C)(C1CCC(N3CC(OC(F)F)C3)CC1)O2` (single isomer, unassigned) [Example 2] had an IC50 at PRC2 containing wt EZH2 of 1.5 nM. In the data set with H3K27me3 in Hela cells (Homo sapiens, HeLa, 72 h), the EC50 was found to be 15 nM. In the data set on Karpas-422 cell lines (setting [2]), this molecule showed a GI50 of 250 nM.
